Reference: article PMC5696560 (Bioorganic & Medicinal Chemistry Letters, 2017)
In brackets after ≈: the same amount, converted by molar mass. Read-outs that look alike come from different tables or passages of the source.

How the values were obtained:
[1] = Oral bioavailability in rats; conditions: BioDuro LLC
M.tb strain H37Rv [2] = assay: LORA: inhibition of growth of M.tb H37Rv under non-replicating conditions; format: cell-based; conditions: Mycobacterium tuberculosis
Protocol: The compounds were evaluated for their inhibition of growth (measured as MIC90 values in µg/mL) against M.tb (strain H37Rv) under both replicating (MABA)[16] or non-replicating (LORA)[17] conditions. […] In a search for less lipophilic analogues, we prepared and evaluated compounds where this phenyl B-ring unit was replaced with different heterocycles of varying lipophilicity (Table 1).

M.tb strain H37Rv [3] = assay: MABA: inhibition of growth of M.tb H37Rv under aerobic (replicating) conditions; format: cell-based; conditions: for MIC90 / MIC: Mycobacterium tuberculosis; for anti-M.tb activity (in words): comparison with 1
[4] = human, microsomes
[5] = rat, in vivo
CYP 3A4 = CYP 3A4 (Homo sapiens, UniProt P08684); assay: Inhibition of CYP 3A4; format: in vitro ADME; conditions: 20 min exposure
in vitro = conditions: human, human liver microsomes
M.tb strain H37Rv [6] = assay: MICs determined at Tibotec (slightly different protocol); format: cell-based; conditions: Mycobacterium tuberculosis, MICs determined at Tibotec (Mechelen, Belgium), read-out: MIC90 (MABA, footnote d)
Excerpt: Given that good activity had been reported for furan 2 (albeit in M. smegmatis),[11] we evaluated a series of both 2- and 3-furyl analogues bearing different C-unit substituents.

Sequence of CYP 3A4 (P08684 whole entry, species assumed): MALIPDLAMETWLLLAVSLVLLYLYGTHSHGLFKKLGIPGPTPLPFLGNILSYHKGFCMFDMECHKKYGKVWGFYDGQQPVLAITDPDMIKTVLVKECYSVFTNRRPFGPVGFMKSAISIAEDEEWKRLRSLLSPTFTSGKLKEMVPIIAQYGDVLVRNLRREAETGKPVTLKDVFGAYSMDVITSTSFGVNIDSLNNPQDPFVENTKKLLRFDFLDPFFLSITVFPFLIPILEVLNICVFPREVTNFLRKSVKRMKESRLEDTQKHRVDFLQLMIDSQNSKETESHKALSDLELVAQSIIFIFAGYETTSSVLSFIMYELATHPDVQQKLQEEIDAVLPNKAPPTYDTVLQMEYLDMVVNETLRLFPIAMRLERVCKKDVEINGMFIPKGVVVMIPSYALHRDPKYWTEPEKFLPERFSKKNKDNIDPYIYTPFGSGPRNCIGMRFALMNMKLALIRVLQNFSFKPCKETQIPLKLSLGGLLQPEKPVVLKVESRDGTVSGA

Compound	MIC90 (M.tb strain H37Rv [2]) [µg/mL]	MIC90 (M.tb strain H37Rv [3]; H37RV) [µg/mL]	Clint [4] [µL/min/mg/protein]	IC50 (CYP 3A4) [µM]	half-life (in vitro) [min]	MIC90 (M.tb strain H37Rv [6]) [µg/mL]	also measured
COc1nc2ccc(Br)cc2cc1[C@@H](c1ccccc1)[C@@](O)(CCN(C)C)c1cccc2ccccc12 [Compound 1, bedaquiline, reference compound]	0.08 (≈ 0.144 µM)	0.05 (≈ 0.09 µM)	–	–	–	–	F(%) oral bioavailability [1]: 70%; MIC (M.tb strain H37Rv [2]; read-out: MIC (LORA)): 0.08 µM (≈ 0.0444 µg/mL); MIC (M.tb strain H37Rv [3]; M.tb H37Rv, replicating, read-out: MIC (MABA)): 0.05 µM
COc1nc2ccc(Br)cc2cc1[C@@H](c1cc(C)c(C)s1)[C@@](O)(CCN(C)C)c1cccc(F)c1 [Compound 9]	0.11 (≈ 0.197 µM)	0.06 (≈ 0.108 µM)	12	10	60	–	F(%) oral bioavailability [5]: 48%; anti-M.tb activity (in words) (M.tb strain H37Rv [3]; M.tb H37Rv): comparable activity to 1; MIC (M.tb strain H37Rv [3]; H37RV, read-out: MIC90 MABA): 0.05 to 0.58 µg/mL
COc1nc2ccc(Br)cc2cc1C(c1ccc(C)s1)C(O)(CCN(C)C)c1cccc(F)c1 (stereo not drawn) [Compound 11]	–	–	–	–	–	0.47 (≈ 0.865 µM)	–
COc1ccc(C(c2cc3cc(C#N)ccc3nc2OC)C(O)(CCN(C)C)c2cccc(F)c2)s1 (stereo not drawn) [Compound 14]	–	–	–	–	–	0.7 (≈ 1.38 µM)	–
COc1nc2ccc(Br)cc2cc1C(c1ccco1)C(O)(CCN(C)C)c1cccc(F)c1 (stereo not drawn) [Compound 15]	–	–	–	–	–	0.74 (≈ 1.44 µM)	–
COc1nc2ccc(C#N)cc2cc1C(c1ccco1)C(O)(CCN(C)C)c1cccc(F)c1 (stereo not drawn) [Compound 16]	–	–	–	–	–	1.79 (≈ 3.9 µM)	–
COc1nc2ccc(Br)cc2cc1C(c1ccco1)C(O)(CCN(C)C)c1cccc(OC(F)(F)F)c1 (stereo not drawn) [Compound 17]	–	–	–	–	–	0.76 (≈ 1.31 µM)	–
COc1cccc(C(O)(CCN(C)C)C(c2ccco2)c2cc3cc(Br)ccc3nc2OC)c1OC (stereo not drawn) [Compound 18]	–	–	–	–	–	0.71 (≈ 1.28 µM)	–
COc1nc2ccc(Br)cc2cc1C(c1ccco1)C(O)(CCN(C)C)c1cccc2c1OCO2 (stereo not drawn) [Compound 19]	–	–	–	–	–	0.69 (≈ 1.28 µM)	–
COc1nc2ccc(Br)cc2cc1C(c1ccco1)C(O)(CCN(C)C)c1ccccn1 (stereo not drawn) [Compound 20]	–	–	–	–	–	1.95 (≈ 3.93 µM)	–
COc1nc2ccc(Br)cc2cc1C(c1ccco1)C(O)(CCN(C)C)c1cccc(C#N)c1 (stereo not drawn) [Compound 21]	–	–	–	–	–	1.96 (≈ 3.77 µM)	–
COc1nc2ccc(Br)cc2cc1C(c1ccoc1)C(O)(CCN(C)C)c1cccc(F)c1 (stereo not drawn) [Compound 22, 1-(6-Bromo-2-methoxyquinolin-3-yl)-4-(dimethylamino)-2-(3-fluorophenyl)-1-(furan-3-yl)butan-2-ol]	–	–	–	–	–	0.74 (≈ 1.44 µM)	–
COc1nc2ccc(C#N)cc2cc1C(c1ccoc1)C(O)(CCN(C)C)c1cccc(F)c1 (stereo not drawn) [Compound 23]	–	–	–	–	–	1.08 (≈ 2.35 µM)	–
COc1nc2ccc(Br)cc2cc1C(c1ccoc1)C(O)(CCN(C)C)c1cccc(F)n1 (stereo not drawn) [Compound 24]	–	–	–	–	–	0.68 (≈ 1.32 µM)	–
COc1nc2ccc(Br)cc2cc1C(c1ccoc1)C(O)(CCN(C)C)c1cccc(OC(F)(F)F)c1 (stereo not drawn) [Compound 25]	–	–	–	–	–	0.76 (≈ 1.31 µM)	–
COc1cccc(C(O)(CCN(C)C)C(c2ccoc2)c2cc3cc(Br)ccc3nc2OC)c1OC (stereo not drawn) [Compound 26]	–	–	–	–	–	1.16 (≈ 2.09 µM)	–
COc1nc2ccc(Br)cc2cc1C(c1ccoc1)C(O)(CCN(C)C)c1cccc2c1OCO2 (stereo not drawn) [Compound 27]	–	–	–	–	–	0.9 (≈ 1.67 µM)	–
COc1nc2ccc(Br)cc2cc1C(c1ccoc1)C(O)(CCN(C)C)c1ccccn1 (stereo not drawn) [Compound 28]	–	–	–	–	–	1.8 (≈ 3.63 µM)	–
COc1ncccc1C(c1cc2cc(Br)ccc2nc1OC)C(O)(CCN(C)C)c1cccc(F)c1 (stereo not drawn) [Compound 29]	–	–	–	–	–	0.12 (≈ 0.216 µM)	–
COc1nc2ccc(Br)cc2cc1[C@@H](c1cccnc1N(C)C)[C@@](O)(CCN(C)C)c1cccc(F)c1 [Compound 35]	0.2 (≈ 0.352 µM)	0.18 (≈ 0.317 µM)	45	> 50	15	–	–
COc1nc2ccc(Br)cc2cc1[C@@H](c1ccc(N(C)C)nc1)[C@@](O)(CCN(C)C)c1cccc(F)c1 [Compound 36]	0.15 (≈ 0.264 µM)	0.08 (≈ 0.141 µM)	38	> 10	18	–	F(%) oral bioavailability [5]: 45%
CCSc1ccc([C@H](c2cc3cc(Br)ccc3nc2OC)[C@@](O)(CCN(C)C)c2cccc(F)c2)cn1 [Compound 39]	0.15 (≈ 0.257 µM)	0.14 (≈ 0.239 µM)	11	10	64	–	F(%) oral bioavailability [5]: 30%
COc1nc2ccc(Br)cc2cc1[C@@H](c1cncc(C)c1)[C@@](O)(CCN(C)C)c1cccc(F)c1 [Compound 42]	0.97 (≈ 1.8 µM)	0.53 (≈ 0.984 µM)	56	4.6	12	–	F(%) oral bioavailability [5]: 24%
COc1cc([C@H](c2cc3cc(Br)ccc3nc2OC)[C@@](O)(CCN(C)C)c2cccc(F)c2)cnc1OC [Compound 43]	0.54 (≈ 0.924 µM)	0.47 (≈ 0.804 µM)	36	> 10	19	–	F(%) oral bioavailability [5]: 36%
COc1nc2ccc(Br)cc2cc1[C@@H](c1ccnc(OC)c1OC)[C@@](O)(CCN(C)C)c1cccc(C)c1 [Compound 45]	0.04 (≈ 0.0689 µM)	0.02 (≈ 0.0345 µM)	13	> 10	52	–	F(%) oral bioavailability [5]: 40%
COc1nc2ccc(Br)cc2cc1[C@@H](c1ccnc(OC)c1OC)[C@@](O)(CCN(C)C)c1cccc(OC(F)F)c1 [Compound 48]	–	< 0.02	11	> 10	61	–	anti-M.tb activity (in words) (M.tb strain H37Rv [3]; M.tb H37Rv): retain the potency of 1
COc1nc2ccc(Br)cc2cc1[C@@H](c1ccnc(OC)c1OC)[C@@](O)(CCN(C)C)c1cccc(C#N)c1 [Compound 49]	0.21 (≈ 0.355 µM)	0.13 (≈ 0.22 µM)	19	> 10	37	–	F(%) oral bioavailability [5]: 68%; oral bioavailability (in words) [5]: comparable to that of 1
COc1cccc([C@](O)(CCN(C)C)[C@@H](c2cc3cc(Br)ccc3nc2OC)c2ccnc(OC)c2OC)c1OC [Compound 50]	–	–	–	–	–	0.21 (≈ 0.335 µM)	–
